This note sets out measurements from article PMC8893300, “A Dynamic Mass Redistribution Assay for the Human Sweet Taste Receptor Uncovers G-Protein Dependent Biased Ligands” (Frontiers in Pharmacology, 2022).

The target in this assay is T1, human sweet taste receptor (hT1R2/hT1R3) (Homo sapiens, UniProt Q7RTX0+Q8TE23).
T1 construct: expressed in transfected cells
T1 sequence (Q8TE23 20-839): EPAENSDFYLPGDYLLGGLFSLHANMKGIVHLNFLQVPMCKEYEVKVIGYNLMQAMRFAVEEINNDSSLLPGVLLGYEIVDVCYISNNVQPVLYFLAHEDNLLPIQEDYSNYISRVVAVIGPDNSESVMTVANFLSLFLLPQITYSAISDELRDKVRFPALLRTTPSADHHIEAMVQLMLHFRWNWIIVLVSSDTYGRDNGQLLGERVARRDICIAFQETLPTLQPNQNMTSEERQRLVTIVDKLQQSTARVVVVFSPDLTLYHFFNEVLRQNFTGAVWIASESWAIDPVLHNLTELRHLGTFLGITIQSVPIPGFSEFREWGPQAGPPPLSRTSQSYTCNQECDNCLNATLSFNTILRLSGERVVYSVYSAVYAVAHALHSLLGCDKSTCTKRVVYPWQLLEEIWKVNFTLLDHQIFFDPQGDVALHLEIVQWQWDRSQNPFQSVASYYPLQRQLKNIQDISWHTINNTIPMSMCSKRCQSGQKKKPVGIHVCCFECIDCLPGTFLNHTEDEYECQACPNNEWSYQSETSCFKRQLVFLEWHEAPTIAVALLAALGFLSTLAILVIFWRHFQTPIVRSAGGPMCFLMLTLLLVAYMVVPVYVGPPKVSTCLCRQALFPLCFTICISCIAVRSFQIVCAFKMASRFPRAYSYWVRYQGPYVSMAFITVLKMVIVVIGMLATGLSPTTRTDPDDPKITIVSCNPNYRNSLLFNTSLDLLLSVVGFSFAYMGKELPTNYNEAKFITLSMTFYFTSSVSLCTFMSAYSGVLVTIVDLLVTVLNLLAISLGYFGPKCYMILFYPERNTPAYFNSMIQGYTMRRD
T1 sequence (Q7RTX0 21-852): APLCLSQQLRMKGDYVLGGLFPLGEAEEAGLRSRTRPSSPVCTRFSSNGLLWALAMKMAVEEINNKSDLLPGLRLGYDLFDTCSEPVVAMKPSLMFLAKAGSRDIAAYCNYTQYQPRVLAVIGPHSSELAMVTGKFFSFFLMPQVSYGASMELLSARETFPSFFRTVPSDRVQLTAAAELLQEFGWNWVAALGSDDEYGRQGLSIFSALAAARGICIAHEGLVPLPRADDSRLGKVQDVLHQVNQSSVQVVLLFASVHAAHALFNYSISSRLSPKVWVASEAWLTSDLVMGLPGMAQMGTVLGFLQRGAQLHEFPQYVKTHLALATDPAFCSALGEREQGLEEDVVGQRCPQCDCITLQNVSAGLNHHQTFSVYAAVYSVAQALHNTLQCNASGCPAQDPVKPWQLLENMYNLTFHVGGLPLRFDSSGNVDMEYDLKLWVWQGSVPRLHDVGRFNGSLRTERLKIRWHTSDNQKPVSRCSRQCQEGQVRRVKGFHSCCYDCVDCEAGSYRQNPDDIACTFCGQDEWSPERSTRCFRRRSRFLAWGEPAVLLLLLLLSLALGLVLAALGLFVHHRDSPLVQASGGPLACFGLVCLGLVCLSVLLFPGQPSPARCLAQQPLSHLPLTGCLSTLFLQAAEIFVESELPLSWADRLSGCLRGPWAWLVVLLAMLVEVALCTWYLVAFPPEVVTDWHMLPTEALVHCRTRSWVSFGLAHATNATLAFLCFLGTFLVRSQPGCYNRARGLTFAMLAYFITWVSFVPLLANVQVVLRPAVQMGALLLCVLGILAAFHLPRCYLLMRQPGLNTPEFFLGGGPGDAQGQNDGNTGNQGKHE
Briefly: DMR assay (Epic reader) on R2/R3 U2OS cells, endogenous G proteins. The assay is classed as cell-based. Particulars: for EC50: R2/R3 U2OS cells, peak DMR response; for ΔlogR DMR Mean: Table 2, operational model, logR minus sucralose logR; for Activity in DMR assay Emax: top asymptote of dose-response normalized to 1 mM sucralose.

[1] abbreviates: read-out: Activity in DMR assay EC50.
[2] abbreviates: read-out: Activity in DMR assay pEC50 (converted).

Molecules are shown by their SMILES. Where two headings read alike, the source gives them in different places. Marks after values point to notes of the source that are not given here.

Turning to `COC(=O)[C@H](Cc1ccccc1)NC(=O)[C@H](CC(=O)O)NCCC(C)(C)C` [Neotame], the “ΔlogR DMR Mean” value is 1.15 and the “Activity in DMR assay Emax” value is given as 99*. In addition, the EC50 under setting [1] came out at 7.7 µM. For the same molecule, the EC50 under setting [2] is 7.29 µM.

Take `CC(C)Oc1ccc(NC(=S)NCc2cccs2)cc1` [S5227]: the “ΔlogR DMR Mean” value is 1.84 and the “Activity in DMR assay Emax” value is on record as 128. Moreover, under setting [1], the EC50 is 2.2 µM. Besides, under setting [2], the EC50 was 2.07 µM.

As for `CC(C)Oc1ccc(NC(=S)NCc2ccc[nH]2)cc1` [S819], the “ΔlogR DMR Mean” value came out at 2.52 and the “Activity in DMR assay Emax” value was 143*. Further, under setting [1], the EC50 was 0.7 µM. Under setting [2], the EC50 was 0.637 µM.
